Data set [1] addresses T1, Solute carrier family 22 member 6 (Homo sapiens, UniProt Q4U2R8).
T1 sequence (Q4U2R8 whole entry): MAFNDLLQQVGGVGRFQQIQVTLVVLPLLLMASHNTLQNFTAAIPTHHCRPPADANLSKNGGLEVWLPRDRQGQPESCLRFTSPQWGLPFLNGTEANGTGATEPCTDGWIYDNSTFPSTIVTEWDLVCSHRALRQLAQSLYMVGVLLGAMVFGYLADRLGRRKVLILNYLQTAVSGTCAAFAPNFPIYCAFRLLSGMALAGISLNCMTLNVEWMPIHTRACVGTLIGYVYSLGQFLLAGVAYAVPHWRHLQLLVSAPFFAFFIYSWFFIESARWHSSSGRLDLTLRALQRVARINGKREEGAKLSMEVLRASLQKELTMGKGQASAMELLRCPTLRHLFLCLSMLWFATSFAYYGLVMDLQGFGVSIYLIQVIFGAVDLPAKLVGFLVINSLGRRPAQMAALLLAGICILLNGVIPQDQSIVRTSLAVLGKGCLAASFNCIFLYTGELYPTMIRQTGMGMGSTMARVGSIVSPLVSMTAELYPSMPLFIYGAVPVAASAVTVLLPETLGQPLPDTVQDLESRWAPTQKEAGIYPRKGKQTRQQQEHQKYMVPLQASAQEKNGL
Briefly: TP_TRANSPORTER: inhibition of PAH uptake (PAH: 2 uM, Indomethacin: 2000 uM) in Xenopus laevis oocytes. The settings on record: oocyte. Details: scale not given: the % may be the effect or the level left. It counts as functional, cell-based.

Data set [2] addresses T2, Solute carrier family 22 member 6 (SLC22A6) (Homo sapiens, UniProt Q4U2R8).
T2 sequence (Q4U2R8 whole entry): T1 sequence (Q4U2R8 whole entry)
Nature of the data set: TP_TRANSPORTER: inhibition of PAH uptake (PAH: 2 uM, Furosemide: 2000 uM) in Xenopus laevis oocytes. It counts as functional, cell-based, Oocyte. Details: scale not given: the % may be the effect or the level left. The following applies: Xenopus laevis oocytes expressing SLC22A6, probe PAH, read-out: Activity.

Data set [3] addresses T1, Solute carrier family 22 member 6. Nature of the data set: TP_TRANSPORTER: inhibition of PAH uptake (PAH: 2 uM, Urate: 2000 uM) in Xenopus laevis oocytes. It counts as functional, cell-based. The following applies: oocyte.

From ChEMBL document CHEMBL2074397, “Molecular cloning and functional expression of a multispecific organic anion transporter from human kidney” (Am J Physiol, 1999) come the findings set out here.

As to `COc1ccc2c(c1)c(CC(=O)O)c(C)n2C(=O)c1ccc(Cl)cc1` [INDOMETHACIN], in data set [1], the Activity is reported as < 0%. On to `NS(=O)(=O)c1cc(C(=O)O)c(NCc2ccco2)cc1Cl` [FUROSEMIDE], for which the activity at 2000 µM in data set [2] was < 0%. For `O=c1[nH]c(=O)c2[nH]c(=O)[nH]c2[nH]1` [URIC ACID], the Activity entry in data set [3] is “inhibitor [(at a rough estimate) 5 % of control]”.
